Columns and labels:
Format in all cases: in vivo
[1] = system: Blumeria graminis forma specialis tritici; assay: Activity against mildew of wheat caused by Blumeria graminis forma specialis tritici; conditions: wheat seedlings "Kanzler", dusted with spores 24 h after spraying, 7 days
In short: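 Compound, emulsified then diluted in water, sprayed to runoff onto leaves of potted wheat seedlings cv. Kanzler; inoculated with Blumeria graminis f. sp. tritici spores 24 h after the coating dried. Plants kept in greenhouse at 20-24° C., 60-90% relative humidity; mildew scored visually after 7 days as % infected leaf area.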

[2] = system: Septoria tritici; assay: Protective activity against Septoria foliar blotch disease of wheat caused by Septoria tritici; conditions: wheat seedlings "Riband", inoculated 24 h after spraying, 2 weeks
Experimental: The active compounds were prepared separately or jointly as a 10% strength emulsion in a mixture of 70% by weight of cyclohexanone, 20% by weight of Nekanil® LN (Lutensol® AP6, wetting agent having emulsifying and dispersing action based on ethoxylated alkylphenols) and 10% by weight of Wettol® EM (nonionic emulsifier based on ethoxylated castor oil) and diluted with water to the desired concentration.
Leaves of potted wheat seedlings of the cultivar “Riband” were sprayed to runoff point with an aqueous preparation of active compound which had been prepared from a stock solution made of 10% of active compound, 85% of cyclohexanone and 5% of emulsifier. 24 hours after the spray coating had dried on, they were inoculated with an aqueous spore suspension of Septoria tritici. The suspension contained 2.0×10^6 spores/ml. The test plants were then placed in a greenhouse at 18-22° C. and a relative atmospheric humidity of close to 100%. After 2 weeks, the extent of the development of the disease was determined visually in % infection of the entire leaf area.

[3] = system: Pyrenophora teres; assay: Activity against net blotch of barley caused by Pyrenophora teres; conditions: barley seedlings "Igri", inoculated 24 h after spraying, 6 days
In short: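 Potted barley seedlings (cv. Igri) were sprayed to runoff with aqueous compound preparation, then inoculated with P. teres spores 24 h after the spray dried. Plants were kept in a greenhouse at 20-24° C and 95-100% relative humidity, and disease was scored visually after 6 days as % infected leaf area.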

[4] = system: Puccinia recondita; assay: Curative activity against brown rust of wheat caused by Puccinia recondita; conditions: curative spray 24 h after inoculation, wheat seedlings "Kanzler", 7 days
In short: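 Wheat seedlings (cv. Kanzler) inoculated with brown rust spores and held 24 h at 90–95% humidity and 20–22°C, then sprayed to runoff with the emulsified compound the next day. Rust development on leaves scored after 7 days in greenhouse at 20–22°C and 65–70% relative humidity.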

Row | Compound | % infection of the leaves after application of an aqueous preparation comprising . . . ppm of active compound ([1]; 16 ppm) [%] | % infection of the leaves after application of an aqueous preparation comprising . . . ppm of active compound ([1]; 63 ppm) [%] | % infection of the leaves after application of an aqueous preparation comprising . . . ppm of active compound ([1]; 250 ppm) [%] | % infection of the leaves after application of an aqueous preparation comprising . . . ppm of active compound ([2]; 16 ppm) [%] | % infection of the leaves after application of an aqueous preparation comprising . . . ppm of active compound ([2]; 63 ppm) [%] | % infection of the leaves after application of an aqueous preparation comprising . . . ppm of active compound ([2]; 250 ppm) [%] | % infection of the leaves after application of an aqueous preparation comprising . . . ppm of active compound ([3]; 16 ppm) [%] | % infection of the leaves after application of an aqueous preparation comprising . . . ppm of active compound ([4]; 63 ppm) [%] | % infection of the leaves after application of an aqueous preparation comprising . . . ppm of active compound ([4]; 250 ppm) [%] | % infection of the leaves after application of an aqueous preparation comprising . . . ppm of active compound ([3]; 63 ppm) [%] | % infection of the leaves after application of an aqueous preparation comprising . . . ppm of active compound ([3]; 250 ppm) [%] | % infection of the leaves after application of an aqueous preparation comprising . . . ppm of active compound ([4]; 16 ppm) [%]
1 | CC(C)[C@H](C)Nc1c(-c2c(F)cccc2F)c(Cl)nc2ncnn12 [comparison (S)-amine of I.-5] | 100 | 100 | 100 | 100 | 100 | 100 | 80 | 100 | 100 |  |  | 
2 | CC[C@H](C)Nc1c(-c2c(Cl)cccc2Cl)c(Cl)nc2ncnn12 [comparison (S)-amine of I.-7] |  |  | 100 | 90 | 90 | 90 | 100 |  |  | 100 | 100 | 100
3 | CC(C)[C@H](C)Nc1c(-c2c(F)cc(F)cc2F)c(Cl)nc2ncnn12 [comparison (S)-amine of I.-14] | 100 | 80 | 80 | 90 | 70 | 70 | 40 | 5 |  |  |  | 100
4 | CC(Nc1c(-c2ccccc2Cl)c(Cl)nc2ncnn12)C(C)(C)C [comparison (S)-amine of I.-44a] | 100 | 100 | 100 | 100 | 100 | 100 | 100 |  | 100 | 30 |  | 

Source: patent publication US20040110771A1, “7-(r)-aminotriazolopyrimidines, the production thereof and use of the same for combatting phytopathogenic fungi” (priority 2000, published 2004)
